From US4704407A, “Soluble dobutamine salts” (Eli Lilly and Company, priority 1986, dated 1987)
Where a name gives a salt, the structure may show the parent alone. One block for each compound: values may come before it.

Legend:
[1] = Solubility of dobutamine salts (as dobutamine base, in water); format: physicochemical
Procedure: 8.3 Millimoles of dobutamine free base and 8.7 millimoles of one of each of the following acids: glycolic, (+)-tartaric, gluconic, lactobionic and glucoheptonic, were mixed under an N2 atmosphere were an amount of 0.035 g aqueous sodium bisulfite dissolved in water for injection such that the final volume was […]; i.e., 100 mg/ml of dobutamine base. If required, the salt-forming mixture was warmed to expedite solution of dobutamine base. The solid salt can be obtained from the solution, if desired, by evaporation of the solvent.
The solubilities of each of the dobutamine salts thus prepared was in excess of 100 mg/ml. By contrast, a saturated solution of dobutamine hydrochloride provides about 25 mg/ml of dobutamine.
Furthermore, with any of the acids named, stereoisomers thereof can also be used rather than a racemate. Dobutamine content of all solutions is monitored with UV.

[2] = cited from earlier work
[3] = Storage stability of concentrate solutions; format: physicochemical; settings: at 5° C., N2 atmosphere, with sodium bisulfite, pH=3.65
Description: In a repeat with (-) tartaric acid, 58.6 g of dobutamine hydrochloride in deaerated water were neutralized with dilute aqueous sodium hydroxide in the presence of a peroxide scavenger under N2; pH=11.09. The precipitate of dobutamine base was washed with the […] and dried. The filter cake was dissolvd in 2 l of deaerated water followed by 26.1 g of (-)-tartaric acid and 0.8 g of sodium bisulfite; pH=3.65. The solution was filtered and then stored at […], always under an N2 atmosphere. Such stored concentrate solutions are stable for 12 months or more at 5° C.

[4] = ascribed to dobutamine, U.S. Pat. No. 3,932,461
[5] = U.S. Pat. No. 3,932,461 (Suh I)

solubility of the dobutamine salt (in words) ([1]; salts with further tartaric acid isomers): high solubility
SMILES: CC(CCc1ccc(O)cc1)NCCc1ccc(O)c(O)c1 (racemic) [dobutamine salt of (±)-tartaric acid]

solubility in water (in words) ([1]; dobutamine base separates from the alkaline medium): water-insoluble
SMILES: CC(CCc1ccc(O)cc1)NCCc1ccc(O)c(O)c1 (racemic) [dobutamine, (±)-N-[3-(4-hydroxyphenyl)-1-methylpropyl]2-(3,4-dihydroxyphenyl) ethylamine]
contractile force [2, 4]: increased contractile force | effect on blood pressure or heart rate [2, 4]: without significant effect on blood pressure or heart rate

SMILES: CC(CCc1ccc2c(c1)OCO2)NCCc1ccc(O)c(O)c1 (centres unmarked) [N-[3-(3,4-methylenedioxyphenyl)-1-methylpropyl 2-(3,4-dihydroxyphenyl)ethylamine]
cardiotonic properties [2, 5]: cardiotonic properties similar to those ascribed to dobutamine | depressant or analgesic activity [2, 5]: depressants or analgesics

solubility ([1]; water, saturated solution, mg/ml of dobutamine, read-out: dobutamine provided by a saturated solution): ~25 mg/mL
SMILES: CC(CCc1ccc(O)cc1)NCCc1ccc(O)c(O)c1 (centres unmarked) [dobutamine hydrochloride]

stability of stored concentrate solutions [3]: ≥ 12 months
SMILES: CC(CCc1ccc(O)cc1)NCCc1ccc(O)c(O)c1 (stereo not drawn) [dobutamine salt of (-)-tartaric acid]
